The text below walks through data of PubChem BioAssay (NCI).

Each structure is given as a SMILES string. “And” between values parts separate entries of the source, which are not always exact repeats. Equal entries are not always repeated.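 Interpolation was linear, between the two tested concentrations surrounding the appropriate level; five concentrations were tested over 48 hours in 96-well plates. The concentration for 50% growth inhibition is given as GI50. At the TGI there is no net growth.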

The subject of this assay is MDA-MB-468 breast. Kind of assay: inhibition of tumour cell growth, NCI panel, 48 h.
As for `Cc1cc2nc(CS)[nH]c2cc1C`, the GI50 is 13000 nM and the TGI turned out to be 30400 nM.

For `CC[C@H](C)[C@H](NC(=O)C12CC(NC)(C1)C2)C(=O)N(C)[C@H](C[C@@H](OC(C)=O)c1nc(C(=O)N[C@@H](Cc2ccccc2)C[C@H](C)C(=O)OC)cs1)C(C)C`, the GI50 was 59.1 nM and the TGI came to 2260 nM.

Consider `CCOC(=O)c1cnc2c(C)cc(C)cc2c1NCCCN(C)C`, for which the GI50 was 2000 nM and the TGI was found to be 8450 nM.

For `COc1cc(Cl)cc(-c2nn(-c3cccc(NC(=O)c4cccc(C(F)(F)F)c4)c3)cc2-c2ccncc2)c1`, the GI50 is 4260 nM and the TGI is more than 100000 nM.

With `COc1cc2c(Nc3ccc(Cl)c(Cl)c3F)ncnc2cc1OCC1C[C@@H]2CN(C)C[C@@H]2C1` (stereo partly drawn), the GI50 was 24.1 nM and 21.7 nM and 21.2 nM; the TGI was 175 nM and 633 nM and 213 nM.

With `C=C1CC[C@@H]2C(C)(C)[C@H](O)CC[C@@]2(C)[C@@H]1COc1ccc2ccc(=O)oc2c1`, the GI50 was 20500 nM and the TGI is 78200 nM.

For the compound `O=C1/C(=C/c2ccc(Cl)cc2Cl)CN(S(=O)(=O)c2ccccc2)C/C1=C\c1ccc(Cl)cc1Cl`, the GI50 is 687 nM and the TGI was 2730 nM.

In the case of `Cc1cc(Cl)ccc1Nc1nc(C(F)(F)F)ccc1C(=O)N/N=C/c1cccc(O)c1`, the GI50 is 1510 nM and the TGI stood at 9690 nM.

Turning to `[Cl][Ru].c1ccc(-c2cc(-c3ccccn3)nc(-c3ccccn3)c2)cc1.c1ccc(-c2ccnc3c2ccc2c(-c4ccccc4)ccnc23)cc1`, the GI50 is 208 nM and the TGI is 635 nM.

As to `CCn1cc(C2NC(=O)c3ccccc3N2)c2cccc(C)c21` (stereo not drawn), the GI50 was 216 nM and the TGI was determined as 656 nM.

As for `CC(=O)O[C@H]1C[C@H](O[C@H]2[C@@H](O)C[C@H](O[C@H]3[C@@H](O)C[C@H](O[C@H]4CC[C@@]5(C)C(CCC6C5C[C@@H](O)[C@]5(C)[C@@H](C7=CC(=O)OC7)CC[C@]65O)C4)O[C@@H]3C)O[C@@H]2C)O[C@H](C)[C@H]1O[C@@H]1O[C@H](CO)[C@@H](O)[C@H](O)[C@H]1O` (stereo partly drawn), the GI50 is 85.6 nM and 220 nM; the TGI was 223 nM and 577 nM.

On to `CN1CCN(CCCOc2ccc3ncnc(Nc4ccc(OCc5cccc(F)c5)c(Cl)c4)c3c2)CC1`, for which the GI50 is 367 nM and the TGI came to 1840 nM.

In the case of `CCOC(=O)C(=Cc1ccc(-c2ccccc2)cc1)C(=O)OCC`, the GI50 was 3240 nM and the TGI amounted to 10100 nM.

Consider `c1ccc(-c2n(Cc3ccc4ccccc4n3)cc[n+]2Cc2ccc3ccccc3n2)cc1`, for which the GI50 was 221 nM and the TGI amounted to 1430 nM.

Turning to `COc1ccc(-c2nc(S(=O)(=O)c3ccccc3)c(S(=O)CC(=O)N3CCC(C)CC3)o2)cc1` (stereo not drawn), the GI50 is 1630 nM and the TGI amounted to 4650 nM.

Take `CN(C)c1ccc2nc3ccc(=[N+](C)C)c([N+](=O)[O-])c-3sc2c1`: the GI50 is 1410 nM and the TGI turned out to be 3350 nM.

For `CN1CCN(CCOc2ccc(-c3cnc4c(-c5cccc(F)c5F)cnn4c3)cc2)CC1`, the GI50 is 1450 nM and the TGI turned out to be 3060 nM.

Take `Cn1ccnc1C(=O)/C=C/c1ccc(C(=O)Nc2ccc(F)cc2)cc1`: the GI50 was 813 nM and the TGI came out at 3060 nM.

Take `O=C(c1ccccc1)N(C(=S)NCCc1ccc(Cl)cc1)c1ccc(Cl)cc1`: the GI50 is 5410 nM and the TGI was determined as 33400 nM.

As for `N#Cc1c(NC(=O)c2cccc(C(F)(F)F)c2F)sc2c1CCC(=O)C2`, the GI50 is 292 nM and the TGI was 1030 nM.

As to `Cc1ccc(C2CC(c3cccc(Nc4ccncc4)c3)=NN2c2cc(Cl)cc(Cl)c2)cc1` (stereo not drawn), the GI50 is 1410 nM and the TGI was found to be 2840 nM.

Turning to `COc1ccc(OC)c(N(CCN2C(=O)c3ccccc3C2=O)C(=O)CCl)c1`, the GI50 is 4430 nM and the TGI is 22000 nM.

Take `CC(C)c1ccc(COCc2cc(CN3CCCC3)c(O)c3ncccc23)cc1`: the GI50 is 401 nM and the TGI was 1880 nM.

In the case of `CCOc1cc2ncc(C#N)c(Nc3ccc(F)c(Cl)c3)c2cc1NC(=O)CC1CCSS1` (stereo not drawn), the GI50 is 473 nM and the TGI is 1170 nM.

Take `COc1ccc2cnc(N)c(C#Cc3cc(C(=O)Nc4ccc(CN5CCN(C)CC5)c(C(F)(F)F)c4)cnc3C)c2c1`: the GI50 was 8830 nM and the TGI was determined as 27600 nM.

Take `O=C1Nc2ccccc2/C1=C/C(=N/c1nnc(-c2ccc(Cl)cc2)s1)c1ccccc1`: the GI50 is 2020 nM and the TGI was determined as 6270 nM.

On to `COc1cccc(CNCCN2C(=O)c3ccc4c5c(ccc(c35)C2=O)C(=O)N(CCNCc2cccc(OC)c2)C4=O)c1`, for which the GI50 is 1760 nM and the TGI came to 3560 nM.

For `C[C@H](Nc1ccc2c(c1)OCCn1cc(N3C(=O)OC[C@H]3C(F)F)nc1-2)C(N)=O`, the GI50 is 343 nM and the TGI came out at 6270 nM.

In the case of `COc1ccc(C(=O)N2N=C(c3ccc(Br)cc3)CC2c2cn(-c3ccccc3)nc2-c2ccccc2)cc1` (stereo not drawn), the GI50 was 6590 nM and the TGI is more than 50000 nM.

Turning to `CCOC(=O)c1c(NC(=O)c2cccc(C(F)(F)F)c2)sc2c(CN3CCN(C)CC3)c(O)ccc12`, the GI50 is 1650 nM and the TGI came to 3250 nM.

As for `COc1ccc2c(c1)c(-c1nonc1-c1cn(C)c3ccccc13)cn2C`, the GI50 was 330 nM.

For the compound `O=S(=O)(Nc1cccc(Cl)c1)c1ccc(-c2cnc(C3CC3)o2)cc1`, the GI50 was 411 nM and the TGI turned out to be 12200 nM.

For `N#C/C(=C\c1ccc2c(c1)OCO2)n1nnc2ccccc21`, the GI50 was 555 nM and the TGI is 7980 nM.

In the case of `COC(=O)c1ccc2[nH]c(O)c(C(=Nc3ccc(N(C)C(=O)CN4CCN(C)CC4)cc3)c3cccc(OC)c3)c2c1`, the GI50 is 1440 nM and the TGI was 3500 nM.

In the case of `C=C1C(=O)O[C@H]2[C@H]1CC/C(COC(=O)NCc1ccc(Cn3c(=O)sn(CCCC)c3=O)cc1)=C\CC[C@@]1(C)O[C@@H]21`, the GI50 is 1730 nM and the TGI came out at 3630 nM.

Regarding `Cc1ccc2c(c1)C(=O)C(c1c(-c3[nH]c(=O)c4ccc(C)cc4c3O)c(O)c3ccccc3c1O)=NC2=O`, the GI50 is 313 nM and the TGI was determined as 987 nM.

In the case of `COc1cc(/C=C\c2cc(/C=C\c3ccc(O)c(OC)c3)n(C(=O)COc3ccc(Cl)cc3Cl)n2)ccc1O`, the GI50 was 1990 nM and the TGI was determined as 5340 nM.
